The text below walks through data of patent US20090305888A1, “Materials and Methods for Providing Oxygen to Improve Seed Germination and Plant Growth” (priority 2006, published 2009).

Each structure is given as a SMILES string. Read-outs that look alike come from different tables or passages of the source.

A short description of data set [1]: Oxygen release from peroxides in water or nutrient solution and its adjustment. Particulars: for oxygen level as nutrient strength increases: nutrient solution with or without companion cations, FIGS. 17 and 18; for increase of oxygen liberated per millimole of EDTA: slope of linear fit, FIG. 10. Format: physicochemical. The procedure:
One hundred milligrams of each of the above solid compositions comprising oxidizing agents was put in a 50 ml polypropylene tube, respectively, unless specialized. 50 ml de-ionized water or nutrient solution was put into the tubes. The strength of the nutrient solutions was 25%, 50%, 100%, 200% or 400% of Yan's formula (Yan, F. et al., “Adaptation of active proton pumping and plasmalemma ATPase activity of corn roots to low root medium pH,” Plant Physiology, 117:311-319 (1998)). The oxygen solutions were allowed to equilibrate over night before any measurements were made.
Oxygen contents in the solutions were determined with an oxygen electrode and ASET system (Applicable Electronics, Inc). Calibration was made by nitrogen aerating deionized water and air equilibrated deionized water. The deionized water consists of 0% oxygen level and the air equilibrated deionized water consists of 21% oxygen content. The temperature of the deionized water was measured and recorded for every measurement. The actual oxygen content in the deionized water at a specific temperature was derived from a handbook of chemistry (David R. Lide, Handbook of Chemistry and Physics, 79th Edition, 1998-1999, pp. 8-87). A regressive equation was formed based on data from calibration calculations and the handbook. All of the observed values were changed into oxygen contents in micromoles through the regressive equation.
Different levels of companion cations of peroxides or chelate were added to the sample solutions. For example, EDTA was added to the 50 ml tubes with peroxide solutions. The peroxide solutions were made in both deionized water and nutrient solutions. After equilibrating overnight, the oxygen contents of the adjusted solutions were analyzed.

The subject of a further data set is ADH of corn roots. Kind of data set: ADH activity of roots of flooded corn plants (FIG. 23). Particulars: flooded for 3 days. Format: in vivo.
The next data set deals with Bald cypress seedlings. In words: Flooding and salinity of Bald cypress seedlings. It counts as in vivo. Particulars: 8 ppt salinity. From the text:
Bald cypress is a plant of great ecological and economic significance in Florida. However, these tough, tolerant, inexpensive and somewhat idiosyncratic trees are at the heart of a fast-disappearing ecosystem. Flooding and salinity caused by hurricanes have accelerated the disappearance of the species. Five basins were set up to mimic flooding basins to study the effects of a solid composition of the invention on alleviating the impact of flooding and salinity on Bald cypress seedlings. These basins were established by using plastic swimming pools with 185×152×23 cm plastic tubs for the combined treatment of flooding and salinity to bald cypress seedlings.
Five levels of salinity were presented: 0, 2, 4, 6 and 8 ppt in sodium chloride. Three flooding levels were presented: 0%, 50% and 100% root submergence. 0% flooding level consisted of 100% of the pots being above the water surface; 50% flooding level consisted of 50% of the height of the pots being submerged; and 100% flooding level consisted of 100% of the height of the pots being submerged.
Two oxygen bioavailable levels were provided for those seedlings that were fully flooded with 8 ppt salinity: (1) with composition comprising oxidizing agent or (2) without composition comprising oxidizing agent in the potted soil. […] Survival rates of the potted seedlings were observed and calculated for each of the treatments.

Data set [2] can be described thus: Solubility product (Ksp) of the peroxides. Format: physicochemical.
Data set [3] concerns ADH of corn seedlings. In words: ADH activity of flooded corn seedlings grown in soil in pots with oxygen fertilizers (FIG. 28). It counts as in vivo.
Protocol: ADH and NR were extracted in the same extraction buffer including 50 mM Tris-HCl (pH 8.0), 1 mM EDTA, 12 μM mercaptoethanol, and 0.05 mg DTT/ml. Frozen root tissues were ground rapidly in a chilled mortar and pestle with the above chilled extraction buffer. The homogenate was centrifuged at 15 000 g at 4° C. for 15 minutes. One hundred μl of supernatant was added to 800 μl of reaction solution containing 50 mM Tris-HCl buffer at pH 9.0, 1 mM EDTA, and 1 mM NAD. The assay uses 15% (v/v) ethanol as the substrate and measures the production of NADH. Measurement of NADH formation was performed in a spectrophotometer (DU 64, Beckman Instruments, Fullerton, Calif.) for 60 seconds at 340 nm. A unit of ADH is defined as the production of 1 nmol of NADH min^−1 mg^−1 protein.
The subject of data set [4] is corn seeds. Particulars: for germination rate: FIG. 2. The procedure:
Corn seeds of FR27 x FRM017 (GRADE: 24RD) were provided by Illinois Foundation Seeds Inc. Two sets of seeds were used: one set of seeds consisted of fresh seeds and the other set of seeds consisted of seeds that were […].
H2O2 methods: 30 seeds and 50 ml 0.5 mM Ca (as CaSO4) with 3/5000, 3/4000, 3/3000, 3/2000, 3/1000 or 3/100 H2O2, separately, were placed into 9 cm dishes. The seeds were soaked in these solutions for 24 hours and then put on and covered by wet napkins. The napkins were wetted in the soaking solutions, respectively.

The test system of data set [5] is corn seeds. Particulars: 3/2000 hydrogen peroxide for one day, embryos or endosperm, FIG. 6. The procedure:
The tested seeds were stabilized as described above. The seed samples were soaked in 0.5 mM CaSO4 solution with or without 3/2000 hydrogen peroxide for one day before any measurements were made. Pt/Ir oxygen electrodes were used. The microelectrodes were calibrated before and after each experiment. Calibrations were performed in deionized water saturated with air (which includes 21% oxygen concentration) and then bubbled with nitrogen gas for at least 30 min (so as to provide 0% oxygen concentration). Ten scans were done on either embryos or endosperms.

In data set [6] the test system is Alcohol dehydrogenase (ADH) of corn embryos. Particulars: 3/2000 hydrogen peroxide, embryos facing downward, 48 hours after germination at 25° C., FIG. 4.
Protocol: Alcohol dehydrogenase (“ADH”) activities of corn embryos placed in environments with different concentrations of bioavailable oxygen at 48 hours after germination at 25° C. were observed. Before germination, corn seeds were soaked in 0.5 mM CaSO4 solution, in aeroponics, or in 3/2000 H2O2 for 24 hours. All of the embryos were exposed to air except for one sample group treated with water, which was placed into soil.
Following treatment, each corn seed was cut into two halves on the embryo. Four halves of embryos were homogenized in extraction buffer including 50 mM Tris-HCl (pH 8.0), 1 mM EDTA, 0.5 mg/ml DTT, and 12 μM mercaptoethanol. The suspension solution of the enzyme was centrifuged twice at 15000 rpm for 5 min in order to separate oil (on the top) from pellets (at the bottom). The supernatant from the second centrifuge was used to measure ADH activity.
100 μl of the enzyme solution and 900 μl of reaction solution that included 50 mM Tris-HCl (pH 9.0), 1 mM EDTA, and 1 mM NAD were incubated in 1.5 ml Eppendorf tubes in a water bath at 30° C. for 3 min. Then, 100 μl 15% ethanol and the reaction solution were added directly to cuvette. Reaction time was 1 min. in the cuvette at 340 nm. The assay uses ethanol as the substrate and measures the production of NADH. […] The relative ADH activity was calculated based on taking the ADH activity of corn seeds germinated in aeroponics as 100%.
The subject of data set [7] is corn seed embryos or endosperms. Particulars: 3/2000 hydrogen peroxide for one day, medium 100 μM CaCl2, FIG. 5.
Protocol: 1.5 mm borosilicate glass capillaries (cat no. TW150-4) that were 10 cm in length were pulled into two micropipettes through a Sutter P-97 at 545° C. The freshly pulled micropipettes were silanized at 200° C. with N,N-Dimethyltrimethylslylamine according to Smith's method (Smith, P J S et al., “Self-referencing, non-invasive, ion selective electrode for single cell direction of trans-plasma membrane,” Microscopy Research and Technique, 46:398-417 (1999)).
Micropipettes were backfilled with H^+ probe backfilling solution of 50 mM KCl and 50 mM HK2PO4.
45 g of Sylgard 184 silicone elastomer and 5 g of Sylgard 184 curing agent (Dow Corporation, USA) were poured into the bottom of a 10 cm Pyrex dish in order to provide a medium for stabilizing the tested treated seeds. One seed was appropriately stabilized in the center of the Pyrex dish with 4 to 5 stainless-steel needles.
Microelectrodes were calibrated before and after each experiment. Calibrations were performed at standard pH 6, 7, and 8 solutions (Fisher Scientific) at 25° C. The Nernst Slopes (in mV decade^−1) were equal or close to 59. Following calibration, the microelectrode was positioned on both the embryos and endosperm of the targeted seed. Then, the embryo and endosperm were, respectively, scanned 100 μm by 100 μm. At least 10 scans were done on either embryo or endosperm.
Data set [8] relates to ADH of corn seedlings. Particulars: nutrient solution of 2 mM hydrogen peroxide, FIG. 26.
Protocol: The enzyme assay was performed according to the procedures described by Chung and Ferl (“Arabidopsis Alcohol Dehydrogenase Expression in Both Shoots and Roots Is Conditioned by Root Growth Environment,” Plant Physiol, 121:429-436 (1999)) and modified slightly. ADH and NR were extracted in the same extraction buffer including 50 mM Tris-HCl (pH 8.0), 1 mM EDTA, 12 μM mercaptoethanol, and 0.05 mg DTT/ml. Frozen root tissues were ground rapidly in a chilled mortar and pestle with the above chilled extraction buffer. The homogenate was centrifuged at 15 000 g at 4° C. for 15 minutes. One hundred μl of supernatant was added to 800 μl of reaction solution containing 50 mM Tris-HCl buffer at pH 9.0, 1 mM EDTA, and 1 mM NAD. The assay uses 15% (v/v) ethanol as the substrate and measures the production of NADH. Measurement of NADH formation was performed in a spectrophotometer (DU 64, Beckman Instruments, Fullerton, Calif.) for 60 seconds at 340 nm. A unit of ADH is defined as the production of 1 nmol of NADH min^−1 mg^−1 protein.
Data set [9] deals with nitrate reductase (NR) of corn seedlings. Particulars: nutrient solution of 2 mM hydrogen peroxide, FIG. 27.
Protocol: NR assays were performed essentially as described by the protocol of Datta and Sharma (Rupali Datta and Rameshwar Sharma, “Temporal and spatial regulation of nitrate reductase and nitrite reductase in green maize leaves,” Plant Science, 144:77-83 (1999)). NR activity was measured immediately. 200 μl of supernatant was added to 800 μl of reaction solution consisting of 50 mM Tris-HCl buffer (pH 8.0), 1 mM EDTA, 100 μM NADH, 10 mM KNO3 and 1 μM Na2MoO4 in a 2 ml eppendorf tube. The reaction was performed in a water bath of 30° C. and terminated after 60 min by adding 500 μl of an equal volume of sulfanilamide (1% [w/v] in 3 n HCl) and naphthylethylene-diamine dihydrochloride (0.05% [w/v]) to the reaction mixture. The samples were colorimetrically measured at 540 nm. One unit of NR activity was defined as the amount required to produce 1 nmol of nitrite min^−1 mg^−1 protein.
In a further data set the test system is corn root. Particulars: nutrient solution with 1 mM H2O2 for two days, air bubbling (normoxia), FIG. 31.
The conditions of data set [10]: cited from earlier work.

Take `[Ca+2].[O-][O-]` [calcium peroxide]: the “oxygen released into water” value in data set [1] (500 mg solid composition in 50 ml deionized water, FIG. 9) is recorded as “released more oxygen than magnesium peroxide”. In data set [1], the “oxygen level as nutrient strength increases” value was “increases when the nutrient strength increases” and the “increase of oxygen liberated per millimole of EDTA” value is “about 19 micromoles”. The “ADH level compared with control” value with ADH of corn roots (18 g per pot) was “almost as good as the control”. Also, the “ADH activity in roots as more solid composition was used” value (shortened to “ADH activity in roots”) with ADH of corn roots is “the less ADH activity observed in the tested roots”. For the same molecule, the death of seedlings result with Bald cypress seedlings (100% flooding) is reported as “No seedlings died”. The growth of seedlings entry in the data set with Bald cypress seedlings (100% roots submerged for four days, 20 g per pot, FIG. 32) was “could grow”. Further, the “Ksp relative to magnesium peroxide” value in [2] is “about 3000 times”. In addition, the “effect on ADH of seedlings suffering from flooding” value with ADH of corn seedlings [3] is reported as “greatly lowered the ADH of the seedlings suffering from flooding”.
For the molecule `OO` [hydrogen peroxide], the root lengths with corn seeds [4] (3/100 H2O2, third day after germination) worked out at 6.8±1.7 mm; with corn seeds [4] (3/2000 H2O2, third day after germination) it was 34.8±1.7 mm. In the data set on corn seeds [4] (3/2000 H2O2, FIG. 1), the “germination rates among varying concentrations of H2O2” value is on record as “the best germination rates”. In the data set on corn seeds [4] (3/2000 H2O2, FIG. 3), the “germination at 24 hours” value is on record as “all of the seeds were able to germinate at 24 hours”. In addition, the germination rate is reported as 95.6% with corn seeds [4] (3/2000 H2O2, new seeds) and 94.4% in the data set with corn seeds [4] (3/2000 H2O2, old seeds). Moreover, in the data set with corn seeds [4] (H2O2 3/5000 to 3/100, 48 hours after germination, FIG. 1), the “germination rates of corn seeds compared with non-hydrogen peroxide exposure” value is “significantly better germination rates than non-hydrogen peroxide exposure”. In the data set with corn seeds [5], the “oxygen consumption rate relative to without hydrogen peroxide” value is listed as “about two”. Moreover, the “diminished ADH activity” value in data set [6] is recorded as “about 40%”. The proton flux direction result in [7] is given as “proton efflux occurs heavily”. Moreover, the “ADH level compared with control” value in the data set with ADH of corn seedlings [8] is “slightly higher that that of the control”. The “ADH level compared with hypoxic seedlings” value in the data set with ADH of corn seedlings [8] is reported as “greatly lower than those of hypoxic seedlings”. Further, the “NR level compared with hypoxic seedlings” value in data set [9] is given as “greatly lower than those of hypoxic seedlings”. Moreover, the “protons excreted by roots relative to hypoxia or anoxia” value in the data set on corn root is on record as “seven to ten”.
As to `[Mg+2].[O-][O-]` [magnesium peroxide], in [1], the “oxygen level as nutrient strength increases” value is reported as “very smooth when the nutrient strength increases” and the “increase of oxygen liberated per millimole of EDTA” value was “about 14 micromoles”. For the same molecule, in the data set with ADH of corn roots, the “ADH activity in roots” value is listed as “the less ADH activity observed in the tested roots”. In addition, the “effect on ADH of seedlings suffering from flooding” value with ADH of corn seedlings [3] was “greatly lowered the ADH of the seedlings suffering from flooding”. Further, the “oxygen released by zero order constant release” value in data set [10] (after the first six days) was 90%. In addition, the “oxygen released by first order release” value in data set [10] (first six days) is 10%.
As for `O=C([O-])[O-].O=C([O-])[O-].OO.OO.OO.[Na+].[Na+].[Na+].[Na+]` [sodium percarbonate], the “ADH level compared with flooded treatment” value with ADH of corn roots (5 g) is “almost as bad as the flooded treatment without the supply of solid compositions”. The “ADH activity in roots” value in the data set on ADH of corn roots is given as “the less ADH activity observed in the tested roots”.
